These results are taken from US9320270B2, “Method of field application of natural pesticides with reduced toxicity and high efficacy by means of microencapsulation” (priority 2009, dated 2016).

A short description of this data set: decomposition during emulsification at 70° C. The data set is classed as physicochemical. Particulars: without antioxidants and weak acids. How it is done: The process of microencapsulation is performed adding the oil phase to the first water phase under high shear stress, being emulsified at 70° C.

Regarding abamectin, the decomposition during emulsification is on record as 5-25%.
